Values of other authors as cited in patent US10874130B2, “Steviol glycoside solutions” (PureCircle USA Inc., priority 2015, dated 2020).

Conditions: heat and pH

Stability in carbonated beverages | Structure (SMILES)
heat and pH stability | C=C1C[C@@]23CC[C@H]4[C@@](C)(CCC[C@@]4(C)C(=O)O[C@@H]4O[C@H](CO)[C@@H](O)[C@H](O)[C@H]4O)[C@@H]2CC[C@]1(O[C@@H]1O[C@H](CO)[C@@H](O)[C@H](O[C@@H]2O[C@H](CO)[C@@H](O)[C@H](O)[C@H]2O)[C@H]1O[C@@H]1O[C@H](CO)[C@@H](O)[C@H](O)[C@H]1O)C3 [rebaudioside A]
heat and pH stability | C=C1C[C@@]23CC[C@H]4[C@@](C)(CCC[C@@]4(C)C(=O)O[C@@H]4O[C@H](CO)[C@@H](O)[C@H](O)[C@H]4O)[C@@H]2CC[C@]1(O[C@@H]1O[C@H](CO)[C@@H](O)[C@H](O)[C@H]1O[C@@H]1O[C@H](CO)[C@@H](O)[C@H](O)[C@H]1O)C3 [stevioside]
